Data on one substance can be found in patent US20260226101A1, “PEPTIDE WITH ANTI-INFLAMMATORY AND ANTI-MICROBIAL ACTIVITY” (priority 2023, published 2026).

For series [1], the system named is LPS-induced phosphorylation of ERK1/2 and p38 MAPK. As to the kind of experiment: Western blot of MAPK pathway in LPS-stimulated RAW 264.7 cells. It is filed as cell-based, murine. Here is the method: As previously described, RAW264.7 cells were cultured and treated with LPS and synthetic peptides. After 18 h, cells were washed with PBS and lysed by incubating with RIPA lysis buffer cocktail (RIPA Lysis buffer, PMSF (1 mM), Protease inhibitor (1 μg/mL), phosphatase inhibitor (1 mM)) at […] for 30 minutes. Post incubation, cell lysate was collected by scraping cells and centrifuged at 12000 rpm for 15 min.
The protein concentration was determined using the Bicinchoninic acid kit method with bovine serum albumin as the standard (provided in the kit), according to the manufacturer's instructions. Protein bands were electrophoretically transferred to a polyvinylidene difluoride (PVDF) membrane via semi-dry transfer blotting, Membranes were blocked with 5% BSA in PBST (1% Tween 20 in PBS) at 20-24° C. for 1 h, then incubated with primary antibodies against IL-10, TLR 4, VEGF, P38 p-p38, ERK and p-ERK, the dilutions are listed in table 3., at 4° C. overnight. GAPDH was used as a protein-loading control. The membrane was washed 3 times (10 min. each) with Tris-buffered saline/Tween 20 (TBST) and then treated with horseradish peroxidase (HRP)-conjugated secondary antibody (1:10000) for 1 h. The membrane was washed again with TBST. The membrane-binding antibodies were visualized later with the ECL detection reagent and images were acquired in a Fusion SL Imaging System. Band density was analyzed by densitometry using Image J software.

The test system of the next series is BALB/C mice. As to the kind of experiment: Acute toxicity study, single dose. It is filed as in vivo. Here is the method:
Once after acclimation period, a total of forty mice for IV route of administration, forty mice (half male and half female)/route were randomized based on bodyweight divided into four groups (10 in each group/per route, in each group 5 per sex) per strain via IV route of administration; prior to dosing initiation (table 12). On the day of dosing (designated as Day 0 of the study), the mice were 6 weeks old, and their body weights ranged from 20 to 25 g. The dosing volume was 0.1 ml per mice and the actual volume of peptide IS 111 solution administered was calculated based on body weight measurements obtained on the day of administration and was administered IV in increasing doses of the synthetic test peptide IS 111 0.6, 2.4, & 4.8 mg/kg; (administration once). The routes of administration were the same proposed for use in humans [Food and Drug Administration, 1988]. Prior to dosing the animals were deprived of food for 12 hours but had free access to drinking water. […]
After a single dose administration, mortality and clinical signs associated with toxicity were observed and recorded daily for consecutive two weeks; body weight changes were measured before and after administration on the 14th day. The animals were observed frequently during the first 4-6-hour period following dose administration and once daily, thereafter, for […], during which animals were evaluated for mortality, clinical signs of toxicity, and behavior. […] The number of animals killed for each of the doses was noted and the LD50 calculated by the Up and Down method, which is one of the most used to reduce the number of animals used [P. A. Botham, 2004]. […]
The mortality, general health status, and toxic reaction symptoms of the experimental groups were documented. Before the first day of IS 111 administration and during the experiments, a detailed clinical observation was carried out and recorded the changes in skin, eyes and mucous membrane, respiratory system, nervous system, activity, and behaviors of the […]. The body weight was measured and recorded before the first day of administration.

Ends that are not written are not given here.

As to “FAKKFAK [IS 111, Phe-Ala-Lys-Lys-Phe-Ala-Lys]”, the “IL-10 levels (western blot)” value in series [1] (IS111 treated cells) is given as “increased”. The “Phosphorylation of ERK (p-ERK1/2)” value in series [1] (LPS-induced, western blot) is given as “significantly inhibited”. Besides, the “LPS-induced increase of p38 phosphorylation” value in series [1] (concentration-dependent, western blot) was “markedly prevented”. For the same substance, the “Adverse reaction in acute toxicity tests” value in the series on BALB/C mice (any of the concentrations) was “no adverse reaction”. Besides, in the series on BALB/C mice (single dose 0.6, 2.4, 4.8 mg/kg, 14 days), the Mortality entry is recorded as “No mortality”. Moreover, in the series on BALB/C mice (single dose 0.6/2.4/4.8 mg/kg, intravenous), the “Body weight and organ weights” value was “no changes”.
